Source: ChEMBL document CHEMBL6134779, “Design of Proteolytic-Resistant Antifungal Peptides by Utilizing Minimum d-Amino Acid Ratios” (J Med Chem, 2024)
≈ marks a conversion by molar mass, not a printed value. Calls of active or inactive are those of the source. The rule behind the calls is not given here.

Legend:
Candida tropicalis = test: Antifungal activity against Candida tropicalis CGMCC 2.1975 assessed as inhibition of fungal growth incubated for 48 hrs; type: functional
[1] = Stability of the compound in KCl assessed as change in secondary structure by CD spectra analysis; type: physicochemical
Candida albicans [2] = test: Antifungal activity against Fluconazole-resistant Candida albicans 56214 assessed as inhibition of fungal growth incubated for 48 hrs; type: functional
Candida parapsilosis = test: Antifungal activity against Candida parapsilosis CGMCC 2.3989 assessed as inhibition of fungal growth incubated for 48 hrs; type: functional; details: Lodderomyces parapsilosis
Candida albicans [3] = test: Antifungal activity against Candida albicans 56452 assessed as inhibition of fungal growth incubated for 48 hrs; type: functional
Cell membrane = test: Disruption of Candida albicans CGMCC 2.2086 cell membrane at 1X MIC measured after 1 hr by SYTO9/propidium iodide staining based fluorescence microscopic analysis; type: subcellular
Candida albicans [4] = test: Antifungal activity against Candida albicans CGMCC 2.2086 infected in C57BL/6 mouse keratitis model assessed as reduction in fungal cell count at 5 mg/ml administered as 10 uL eye drop every 5 mins for first 1 hr and every 30 mins for next 7 hrs relative to control; type: functional; set-up: scale not given: the % may be the effect or the level left; details: route ou, time 8 hrs
Candida albicans [5] = test: Induction of morphological changes in Candida albicans CGMCC 2.2086 assessed as cell content leakage at 1X MIC measured after 60 mins by TEM analysis; type: functional, organism-based
Candida albicans [6] = test: Induction of Candida albicans CGMCC 2.2086 cell wall permeabilization at 16 uM by NPN probe based assay relative to control; type: functional
Candida albicans [7] = test: Induction of morphological changes in Candida albicans CGMCC 2.2086 assessed as appearance of cell wrinkles at 1X MIC measured after 60 mins by SEM analysis; type: functional, organism-based
Candida albicans [8] = test: Antifungal activity against Candida albicans 14936 assessed as inhibition of fungal growth incubated for 48 hrs; type: functional
Candida albicans [9] = test: Fungicidal activity against Candida albicans CGMCC 2.2086 at 1X MIC measured within 90 mins by time-kill assay; type: functional, organism-based
Candida albicans [10] = test: Antifungal activity against Candida albicans SP3876 assessed as inhibition of fungal growth incubated for 48 hrs; type: functional
Candida albicans [11] = test: Induction of morphological changes in Candida albicans CGMCC 2.2086 assessed as appearance of cell holes at 1X MIC measured after 60 mins by SEM analysis; type: functional, organism-based
Candida albicans [12] = test: Antifungal activity against Candida albicans SP3903 assessed as inhibition of fungal growth incubated for 48 hrs; type: functional
Candida albicans [13] = test: Antifungal activity against Candida albicans CGMCC 2.2086 assessed as inhibition of fungal growth incubated for 48 hrs; type: functional
Candida albicans [14] = test: Fungicidal activity against Candida albicans CGMCC 2.2086 measured up to 120 mins by time-kill assay; type: functional, organism-based
Candida albicans [15] = test: Antifungal activity against Candida albicans CGMCC 2.2086 infected in C57BL/6 mouse keratitis model assessed as increase in ocular transparency at 5 mg/ml administered as 10 uL eye drop every 5 mins for first 1 hr and every 30 mins for next 7 hrs; type: functional, organism-based; details: route ou, time 8.0 hrs
Candida albicans [16] = test: Antifungal activity against Candida albicans CGMCC 2.2086 infected in C57BL/6 mouse keratitis model assessed as increase in ocular clarity at 5 mg/ml administered as 10 uL eye drop every 5 mins for first 1 hr and every 30 mins for next 7 hrs; type: functional, organism-based; details: route ou, time 8.0 hrs
[17] = Cytotoxicity against porcine IPEC-J2 cells assessed as reduction in cell viability at 128 uM incubated for 4 hrs by MTT assay; type: toxicity, cell-based, Sus scrofa; details: pig, ipec-j2, 4 h
[18] = Proteolytic stability of the compound assessed as protease K (unknown origin)-mediated drug degradation measured after 8 hrs by 16.5% tricine-SDS-PAGE analysis; type: ADME; details: human
Candida albicans [19] = test: Antifungal activity against Fluconazole-resistant Candida albicans 58288 assessed as inhibition of fungal growth incubated for 48 hrs; type: functional
[20] = Proteolytic stability of the compound assessed as chymotrypsin (unknown origin)-mediated drug degradation measured after 8 hrs by 16.5% tricine-SDS-PAGE analysis; type: ADME; details: human
[21] = Stability of the compound in NaCl assessed as change in secondary structure by CD spectra analysis; type: physicochemical
Candida albicans [22] = test: Antifungal activity against Candida albicans CGMCC 2.2086 infected in C57BL/6 mouse keratitis model assessed as reduction in clinical scores at 5 mg/ml administered as 10 uL eye drop every 5 mins for first 1 hr and every 30 mins for next 7 hrs; type: functional, organism-based; details: route ou, time 8.0 hrs
[23] = Stability of the compound in MgCl2 assessed as change in secondary structure by CD spectra analysis; type: physicochemical
HEK293 [24] = test: Cytotoxicity against HEK293 cells assessed as reduction in cell viability at 128 uM incubated for 4 hrs by MTT assay; type: toxicity, cell-based; details: human, hek293, 4 h
Candida albicans [25] = test: Antifungal activity against Candida albicans 17546 assessed as inhibition of fungal growth incubated for 48 hrs; type: functional
Candida albicans [26] = test: Induction of morphological changes in Candida albicans CGMCC 2.2086 assessed as appearance of cell pits at 1X MIC measured after 60 mins by SEM analysis; type: functional, organism-based
Candida albicans [27] = test: Antifungal activity against Candida albicans SP3902 assessed as inhibition of fungal growth incubated for 48 hrs; type: functional
[28] = Proteolytic stability of the compound assessed as trypsin (unknown origin)-mediated drug degradation measured after 8 hrs by 16.5% tricine-SDS-PAGE analysis; type: ADME; details: human
[29] = Hemolytic activity in human red blood cells assessed as hemolysis incubated for 1 hr; type: toxicity, cell-based, Erythrocyte
[30] = Hemolytic activity in human red blood cells assessed as hemolysis rate at 512 uM incubated for 1 hr relative to control; type: toxicity, cell-based, Erythrocyte; details: read-out: Activity
[31] = Proteolytic stability of the compound assessed as trypsin (unknown origin)-mediated drug degradation measured after 8 hrs by RP-HPLC analysis; type: ADME; details: human
Candida albicans [32] = test: Antifungal activity against Candida albicans CGMCC 2.2086 assessed as inhibition of fungal growth incubated for 2 hrs in presence of protease K; type: functional, organism-based
Candida albicans [33] = test: Antifungal activity against Candida albicans CGMCC 2.2086 assessed as inhibition of fungal growth incubated for 48 hrs in presence of NaCl; type: functional
Candida albicans [34] = test: Antibiofilm activity against Candida albicans CGMCC 2.2086 assessed as inhibition of biofilm formation at antifungal MIC measured after 48 hrs by crystal violet staining based assay; type: functional
[35] = Proteolytic stability of the compound assessed as chymotrypsin (unknown origin)-mediated drug degradation measured after 8 hrs by RP-HPLC analysis; type: ADME; details: human
[36] = Stability of the compound in FeCl3 assessed as change in secondary structure by CD spectra analysis; type: physicochemical
Candida albicans [37] = test: Induction of morphological changes in Candida albicans CGMCC 2.2086 assessed as separation of cell wall from plasma membrane at 1X MIC measured after 60 mins by TEM analysis; type: functional, organism-based
HEK293 [38] = test: Cytotoxicity against HEK293 cells assessed as cell death at 64 uM measured after 8 hrs by calcein-AM and propidium iodide Live/Dead dye staining assay; type: toxicity, cell-based; details: human, hek293, 8 h
[39] = Stability of the compound in CaCl2 assessed as change in secondary structure by CD spectra analysis; type: physicochemical
[40] = Stability of the compound in NH4Cl assessed as change in secondary structure by CD spectra analysis; type: physicochemical

CC[C@H](C)[C@H](N)C(=O)N[C@H](C(=O)N[C@H](CCCNC(=N)N)C(=O)N[C@@H](CCCNC(=N)N)C(=O)N[C@@H](Cc1c[nH]cn1)C(=O)N[C@H](C(=O)N[C@H](C(=O)N[C@H](C(=O)N[C@H](C(=O)N[C@H](CCCNC(=N)N)C(=O)N[C@@H](CCCNC(=N)N)C(=O)N[C@@H](Cc1c[nH]cn1)C(=O)N[C@H](C(=O)N[C@H](C(=O)N[C@H](C(=O)N[C@H](C(=O)N[C@H](CCCNC(=N)N)C(=O)N[C@@H](CCCNC(=N)N)C(=O)N[C@@H](Cc1c[nH]cn1)C(=O)N[C@H](C(=O)N[C@H](C(N)=O)[C@@H](C)CC)[C@@H](C)CC)[C@@H](C)CC)[C@@H](C)CC)[C@@H](C)CC)[C@@H](C)CC)[C@@H](C)CC)[C@@H](C)CC)[C@@H](C)CC)[C@@H](C)CC)[C@@H](C)CC
MIC95 (Candida tropicalis): 2 µM (≈ 5.45 µg/mL) | Stability [1]: Stable | MIC95 (Candida albicans [2]): 4 µM (≈ 10.9 µg/mL) | MIC95 (Candida parapsilosis): 4 µM (≈ 10.9 µg/mL) | MIC95 (Candida albicans [3]): 2 µM (≈ 5.45 µg/mL) | Activity (Cell membrane): Active | Activity (Candida albicans [4]): >65% | Activity (Candida albicans [5]): Active | Activity (Candida albicans [6]): >100% | Activity (Candida albicans [7]): Active | MIC95 (Candida albicans [8]): 4 µM (≈ 10.9 µg/mL) | Activity (Candida albicans [9]): Active; Eliminated All Fungal Organisms | MIC95 (Candida albicans [10]): 2 µM (≈ 5.45 µg/mL) | Activity (Candida albicans [11]): Active | MIC95 (Candida albicans [12]): 2 µM (≈ 5.45 µg/mL) | MIC95 (Candida albicans [13]): 4 µM (≈ 10.9 µg/mL) | Activity (Candida albicans [14]): Dose-dependent-effect | Activity (Candida albicans [15]): Active | Activity (Candida albicans [16]): Active | Activity [17]: Toxic | Stability [18]: Stable | MIC95 (Candida albicans [19]): 2 µM (≈ 5.45 µg/mL) | Stability [20]: Stable | Stability [21]: Unstable | Activity (Candida albicans [22]): Active | Stability [23]: Stable | Activity (HEK293 [24]): Toxic | MIC95 (Candida albicans [25]): 4 µM (≈ 10.9 µg/mL) | Activity (Candida albicans [26]): Active | MIC95 (Candida albicans [27]): 2 µM (≈ 5.45 µg/mL) | Stability [28]: Stable | HC50 at 1 h [29]: > 512 µM | hemolysis at 1 h, 512 µM [30]: 40.8% | Stability [31]: Stable | Activity (Candida albicans [32]): Active | MIC95 (Candida albicans [33]): 16 µM | inhibition (INH) (Candida albicans [34]): 90% | Stability [35]: Stable | Stability [36]: Stable | Activity (Candida albicans [37]): Active | Activity (HEK293 [38]): Toxic | Stability [39]: Stable | Stability [40]: Stable
